Data as given in patent US20200377496A1, “INDOLE AND BENZIMIDAZOLE DERIVATIVES AS DUAL 5-HT2A and 5-HT6 RECEPTOR ANTAGONISTS” (ADAMED PHARMA, S.A., priority 2018, published 2020).
pKi: −log10 of the molar value. Read-outs that look alike come from different tables or passages of the source.

Tests used:
5-HT6 receptors = 5-HT6 receptors (Homo sapiens, UniProt P50406); experiment: 5-HT6 receptor binding assay ([3H]-LSD radioligand); conditions: membranes from CHO-K1 cells with human 5-HT6 receptor, [3H]-LSD 1 nM
Chain of 5-HT6 receptors (P50406 whole entry): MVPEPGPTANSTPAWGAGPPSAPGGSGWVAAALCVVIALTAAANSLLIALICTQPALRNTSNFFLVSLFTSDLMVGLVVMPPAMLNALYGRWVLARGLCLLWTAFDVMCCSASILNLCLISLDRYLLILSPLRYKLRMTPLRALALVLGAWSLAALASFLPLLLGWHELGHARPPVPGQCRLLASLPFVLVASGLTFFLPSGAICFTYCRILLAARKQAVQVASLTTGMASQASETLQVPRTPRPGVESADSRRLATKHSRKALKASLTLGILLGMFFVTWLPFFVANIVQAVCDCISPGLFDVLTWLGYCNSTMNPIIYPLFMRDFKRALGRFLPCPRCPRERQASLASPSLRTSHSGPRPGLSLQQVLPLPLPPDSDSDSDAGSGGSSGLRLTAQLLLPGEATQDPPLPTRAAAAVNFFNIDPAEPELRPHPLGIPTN
Method: (§1) Preparation of Solutions of Test and Reference Compounds.
(§2) 1 mM stock solutions of tested compounds were prepared in DMSO. Serial dilutions of compounds were prepared in 96-well microplate in assay buffers using automated pipetting system epMotion 5070 (Eppendorf). Each compound was tested in 10 concentrations from 1.0E-6 to 1.0E-11 M (final concentration).
5-HT6 Receptor Binding Assay.
Radioligand binding was performed using membranes from CHO-K1 cells stably transfected with the human 5-HT6 receptor (PerkinElmer). All assays were carried out in duplicates. 50 μl working solution of the tested compounds, 50 μl [3H]-LSD (final concentration 1 nM) and 150 μl diluted membranes (8 μg protein per well) prepared in assay buffer (50 mM Tris, pH 7.4, 10 mM MgCl2, 0.1 mM EDTA) were transferred to polypropylene 96 well microplate using 96-wells pipetting station Rainin Liquidator (MettlerToledo). Methiothepin (10 μM) was used to define nonspecific binding. Microplate was covered with a sealing tape, mixed and incubated for 60 minutes at 37° C. The reaction was terminated by rapid filtration through GF/A filter mate presoaked with 0.5% polyethyleneimine for 30 minutes. Ten rapid washes with 200 μl 50 mM Tris buffer (4° C., pH 7.4) were performed using automated harvester system Harvester-96 MACH III FM (Tomtec). The filter mates were dried at 37° C. in forced air fan incubator and then solid scintilator MeltiLex was melted on filter mates at 90° C. for 5 minutes. Radioactivity was counted in MicroBeta2 scintillation counter (PerkinElmer). Data were fitted to a one-site curve-fitting equation with Prism 6 (GraphPad Software) and Ki values were estimated from the Cheng-Prusoff equation.

human 5-HT2A receptor = human 5-HT2A receptor (Homo sapiens, UniProt P28223); experiment: 5-HT2A receptor binding assay ([3H]-ketanserin radioligand)
Chain of human 5-HT2A receptor (P28223 whole entry): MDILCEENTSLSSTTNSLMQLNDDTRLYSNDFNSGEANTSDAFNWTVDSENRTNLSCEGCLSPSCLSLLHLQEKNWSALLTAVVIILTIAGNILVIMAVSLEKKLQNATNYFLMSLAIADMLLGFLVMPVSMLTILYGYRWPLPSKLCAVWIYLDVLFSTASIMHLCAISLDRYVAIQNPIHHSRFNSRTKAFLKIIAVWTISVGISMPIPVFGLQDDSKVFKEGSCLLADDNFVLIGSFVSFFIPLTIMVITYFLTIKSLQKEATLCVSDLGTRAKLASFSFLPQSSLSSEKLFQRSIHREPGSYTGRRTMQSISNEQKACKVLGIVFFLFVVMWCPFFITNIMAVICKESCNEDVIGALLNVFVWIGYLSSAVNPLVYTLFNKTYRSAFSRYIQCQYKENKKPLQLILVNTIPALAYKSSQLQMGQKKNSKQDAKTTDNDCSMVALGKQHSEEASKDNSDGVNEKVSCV
Method: as §1, §2
5-HT2A Receptor Binding Assay.
Radioligand binding was performed using membranes from CHO K1 cells stably transfected with the human 5-HT2A receptor (PerkinElmer). All assays were carried out in duplicates. 50 μl working solution of the tested compounds, 50 μl [3H]-ketanserin (final concentration 1 nM) and 150 μl diluted membranes (7 μg protein per well) prepared in assay buffer (50 mM Tris, pH 7.4, 4 mM CaCl2, 0.1% ascorbic acid) were transferred to polypropylene 96-well microplate using 96-wells pipetting station Rainin Liquidator (MettlerToledo). Mianserin (10 μM) was used to define nonspecific binding. Microplate was covered with a sealing tape, mixed and incubated for 60 minutes at 27° C. The reaction was terminated by rapid filtration through GF/B filter mate presoaked with 0.5% polyethyleneimine for 30 minutes. Ten rapid washes with 200 μl 50 mM Tris buffer (4° C., pH 7.4) were performed using automated harvester system Harvester-96 MACH III FM (Tomtec). The filter mates were dried at 37° C. in forced air fan incubator and then solid scintilator MeltiLex was melted on filter mates at 90° C. for 5 minutes. Radioactivity was counted in MicroBeta2 scintillation counter (PerkinElmer). Data were fitted to a one-site curve-fitting equation with Prism 6 (GraphPad Software) and Ki values were estimated from the Cheng-Prusoff equation.

[1] = test system: head twitches induced by 5-HT2A/C receptor agonist DOI; experiment: DOI-induced head twitches in Wistar rats; type: in vivo; conditions: hydrochloride salt p.o. 180 min before observation; DOI 2.5 mg/kg i.p.; male Wistar rats
Method: Biological Example 3. Effects of Compounds 1 and 17, on Head Twitches Induced by a 5-HT2A/C receptor agonist, 1-(2,5-dimethoxy-4-Iodophenyl)-2-aminopropane hydrochloride (DOI) in Wistar Rats
Drug-naive male Wistar rats (Charles River, Sulzfeld, Germany) were used. Rats were housed four per standard plastic cage and kept in a room with constant environmental conditions (22±1° C., relative humidity 60%, a 12:12 light-dark cycle with lights on at 07:00 a.m.). Animals were supplied by the breeder 2 weeks before the onset of behavioral procedures. During this time, the subjects were weighted and handled several times. The rats were also habituated to p.o. administration of tested compounds in form of hydrochloride salt by gavage dosing of distilled water (1-2 mL). Tap water and standard lab chow (Labofeed H, WPIK, Kcynia, Poland) was available ad libitum.
All tests were carried out in a sound-attenuated experimental room between 10:00 a.m. and 04:00 p.m. DOI-induced head twitches were scored as described by Millan et al. (2000). Rats were injected with DOI (2.5 mg/kg, i.p.) and placed in glass observation cages (25×25×40 cm, W×H×L) with wood chip bedding on the floor. Five minutes later, head twitches were counted for 5 min. (300 s) by a trained observer. […]
Total numbers of head twitches (n/5 min.) were analyzed with the aid of the Kruskal-Wallis analysis of variance (ANOVA). […]

| SMILES | pKi (5-HT6 receptors) | pKi (human 5-HT2A receptor; membranes from CHO K1 cells with human 5-HT2A receptor, [3H]-ketanserin 1 nM, read-out: 5-HT2A Ki) | minimum effective dose (MED), attenuation of DOI-induced head twitches [1] | pKi (human 5-HT2A receptor) |
| --- | --- | --- | --- | --- |
| FC(F)(F)c1nc2c(N3CCNCC3)cccc2n1Cc1ccccc1 [Compound 1, 1-benzyl-4-(piperazin-1-yl)-2-(trifluoromethyl)-1H-benzimidazole] | 8.89 | 8.38 | 3.0 mg/kg | – |
| FC(F)(F)c1cc2c(N3CCNCC3)cccc2n1Cc1ccco1 [Compound 17, 1-(furan-2-ylmethyl)-4-(piperazin-1-yl)-2-(trifluoromethyl)-1H-indole] | 9.21 | – | 1.0 mg/kg | 8.80 |
